The nature of data set [1]: Inhibition of hedgehog signaling pathway in mouse NIH/3T3 cells carrying stably transfected Gli-reporter construct by luciferase reporter assay. It counts as cell-based. The conditions noted are these: NIH3T3. Background: Reporter assays use an easily measured gene product as a stand-in for the process of interest.
Another data set is filed under the species Mus musculus. The data set can be described thus: Potency index, ratio of IC50 for Vismodegib to IC50 for test compound for inhibition of hedgehog signaling pathway in mouse NIH/3T3 cells carrying stably transfected Gli-reporter construct by luciferase reporter assay. The format is cell-based.
A short description of data set [2]: Half life in Sprague-Dawley rat at 1 mg/kg, iv formulated using 5% DMA + 5% Tween-80 measured during 2 mins to 24 hrs post dose by LC/MS/MS method. It counts as ADME, organism-based. To be noted: in vivo.
Data set [3] can be described thus: Half life in Sprague-Dawley rat at 5 mg/kg, po formulated using 5% DMA + 5% Tween-80 measured during 2 mins to 24 hrs post dose by LC/MS/MS method. The format is ADME, organism-based. The conditions noted are these: in vivo.
A short description of data set [4]: Half life in Sprague-Dawley rat at 5 mg/kg, po formulated using 0.5% HPMC + 0.3% Tween-80 (pH = 2.8) measured during 2 mins to 24 hrs post dose by LC/MS/MS method. It counts as ADME, organism-based. To be noted: in vivo.
Data set [5] can be described thus: Cmax in Sprague-Dawley rat at 1 mg/kg, iv formulated using 5% DMA + 5% Tween-80 measured during 2 mins to 24 hrs post dose by LC/MS/MS method. The format is ADME, organism-based. Further details: dose 1 mg/kg, route intravenous. The conditions noted are these: in vivo.
Data set [6] can be described thus: Cmax in Sprague-Dawley rat at 5 mg/kg, po formulated using 5% DMA + 5% Tween-80 measured during 2 mins to 24 hrs post dose by LC/MS/MS method. It counts as ADME, organism-based. Further details: dose 5 mg/kg, route oral. The conditions noted are these: in vivo.
Data set [7] in a line: Cmax in Sprague-Dawley rat at 5 mg/kg, po formulated using 0.5% HPMC + 0.3% Tween-80 (pH = 2.8) measured during 2 mins to 24 hrs post dose by LC/MS/MS method. The conditions noted are these: in vivo. It counts as ADME, organism-based. Also noted: dose 5 mg/kg, route oral.
Data set [8] can be described thus: AUC (0 to t) in Sprague-Dawley rat at 1 mg/kg, iv formulated using 5% DMA + 5% Tween-80 measured during 2 mins to 24 hrs post dose by LC/MS/MS method. To be noted: in vivo. It counts as ADME, organism-based. Further details: dose 1 mg/kg, time 0.033-24 hr, route intravenous.
Data set [9] in a line: AUC (0 to t) in Sprague-Dawley rat at 5 mg/kg, po formulated using 5% DMA + 5% Tween-80 measured during 2 mins to 24 hrs post dose by LC/MS/MS method. The conditions noted are these: in vivo. It counts as ADME, organism-based. Further details: time upper 24 hr, time lower 0.033 hr, dose 5 mg/kg, route oral.
A short description of data set [10]: AUC (0 to t) in Sprague-Dawley rat at 5 mg/kg, po formulated using 0.5% HPMC + 0.3% Tween-80 (pH = 2.8) measured during 2 mins to 24 hrs post dose by LC/MS/MS method. It counts as ADME, organism-based. Further details: time 0.033-24 hr, dose 5 mg/kg, route oral. To be noted: in vivo.
Data set [11] is described as follows: Apparent volume of distribution in Sprague-Dawley rat at 1 mg/kg, iv formulated using 5% DMA + 5% Tween-80 measured during 2 mins to 24 hrs post dose by LC/MS/MS method. It counts as ADME, organism-based. The conditions noted are these: in vivo, read-out: Vz.
Data set [12] relates to Rattus norvegicus. The data set can be described thus: Apparent volume of distribution in Sprague-Dawley rat at 5 mg/kg, po formulated using 5% DMA + 5% Tween-80 measured during 2 mins to 24 hrs post dose by LC/MS/MS method. To be noted: in vivo. It counts as ADME, organism-based.
The subject of data set [13] is Rattus norvegicus. The data set can be described thus: Apparent volume of distribution in Sprague-Dawley rat at 5 mg/kg, po formulated using 0.5% HPMC + 0.3% Tween-80 (pH = 2.8) measured during 2 mins to 24 hrs post dose by LC/MS/MS method. The format is ADME, organism-based. The conditions noted are these: in vivo, pH 2.8, 5 mg/kg.
Data set [14] is described as follows: Clearance in Sprague-Dawley rat at 1 mg/kg, iv formulated using 5% DMA + 5% Tween-80 measured during 2 mins to 24 hrs post dose by LC/MS/MS method. To be noted: in vivo. It counts as ADME, organism-based.
Data set [15] is described as follows: Clearance in Sprague-Dawley rat at 5 mg/kg, po formulated using 5% DMA + 5% Tween-80 measured during 2 mins to 24 hrs post dose by LC/MS/MS method. The conditions noted are these: in vivo. It counts as ADME, organism-based.
Data set [16] in a line: Clearance in Sprague-Dawley rat at 5 mg/kg, po formulated using 0.5% HPMC + 0.3% Tween-80 (pH = 2.8) measured during 2 mins to 24 hrs post dose by LC/MS/MS method. It counts as ADME, organism-based. To be noted: in vivo.
A short description of data set [17]: Mean residence time (0 to t) in Sprague-Dawley rat at 1 mg/kg, iv formulated using 5% DMA + 5% Tween-80 measured during 2 mins to 24 hrs post dose by LC/MS/MS method. The format is ADME, organism-based. To be noted: in vivo.
Data set [18] is described as follows: Mean residence time (0 to t) in Sprague-Dawley rat at 5 mg/kg, po formulated using 5% DMA + 5% Tween-80 measured during 2 mins to 24 hrs post dose by LC/MS/MS method. It counts as ADME, organism-based. The conditions noted are these: in vivo.
Data set [19] in a line: Mean residence time (0 to t) in Sprague-Dawley rat at 5 mg/kg, po formulated using 0.5% HPMC + 0.3% Tween-80 (pH = 2.8) measured during 2 mins to 24 hrs post dose by LC/MS/MS method. The format is ADME, organism-based. To be noted: in vivo.

The structures appear in SMILES notation.

For `Cc1ccc(CN2CCN(C)CC2)cc1NC(=O)c1ccc(Nc2ncc(C)c(-c3ccc(OC(F)(F)F)cc3)n2)c(F)c1`, 0.93 nM corresponded to half-maximal inhibition in [1] (IC50). Besides, the Ratio IC50 in the data set filed under Mus musculus was greater than 8. Besides, the half-life is 13.5 h in [2], 14.9 h in [3] and 11.7 h in data set [4]. Moreover, the Cmax was 225 ng/mL in data set [5], 62.4 ng/mL in data set [6] and 57.1 ng/mL in data set [7]. Moreover, the values for the AUC(0-t) in data set [8], in [9] and in data set [10] were 383 ng·h/mL, 956 ng·h/mL and 882 ng·h/mL, respectively. In addition, the Vd in [11] is 37.4 L/kg. Also, the Vz is 71.6877 L/kg with Rattus norvegicus [12] and 69.4647 L/kg with Rattus norvegicus [13]. In addition, the clearance in [14] was 32.2 mL/min/kg. Besides, the CL/F is 55.7 mL/min/kg in data set [15] and 68.7 mL/min/kg in data set [16]. The mean residence time MRT last is 7.93 h in data set [17], 10.7 h in data set [18] and 10.3 h in [19].
For the compound `Cc1ccc(OCCN2CCOCC2)cc1NC(=O)c1ccc(Nc2ncc(C)c(-c3ccc(OC(F)(F)F)cc3)n2)c(F)c1`, the IC50 in data set [1] was determined as 0.71 nM. The Ratio IC50 in the data set filed under Mus musculus was greater than 8.
On the same counts, the results for `Cc1ccc(CN2CCOCC2)cc1NC(=O)c1ccc(Nc2ncc(C)c(-c3ccccc3)n2)c(F)c1` are 0.05 nM and 150.
On the same counts, the results for `Cc1ccc(CN2CCOCC2)cc1NC(=O)c1ccc(Nc2ncc(C)c(-c3ccc(OC(F)(F)F)cc3)n2)c(F)c1` are 0.5 nM and 14.
On to `Cc1ccc(CN2CCCC2)cc1NC(=O)c1ccc(Nc2ncc(C)c(-c3ccc(OC(F)(F)F)cc3)n2)c(F)c1`, for which half-maximal inhibition in data set [1] (IC50) was put at 2.03 nM.
Still for that read-out and setting: in the case of `Cc1ccc(CN2CCN(C)CC2)cc1NC(=O)c1ccc(Nc2ncc(F)c(-c3ccc(OC(F)(F)F)cc3)n2)c(F)c1` it was 5.67 nM; in that of `Cc1ccc(CN2CCOCC2)cc1NC(=O)c1ccc(Nc2nccc(-c3cnn(C)c3)n2)c(F)c1`, 48.9 nM.
The same measure, in the same setting: in the case of `Cc1ccc(CN2CCOCC2)cc1NC(=O)c1ccc(Nc2ncc(C)c(-c3ccccn3)n2)c(F)c1` it was 1.15 nM.
Same read-out and setting: as for `Cc1ccc(CN2CCN(C)CC2)cc1NC(=O)c1ccc(Nc2ncc(F)c(-c3ccncc3)n2)c(F)c1`, the figure is 42.7 nM; as for `CS(=O)(=O)c1ccc(C(=O)Nc2ccc(Cl)c(-c3ccccn3)c2)c(Cl)c1` [VISMODEGIB], 7.2 nM.
Consider `Cc1ccc(CN2CCCCC2)cc1NC(=O)c1ccc(Nc2ncc(C)c(-c3ccc(OC(F)(F)F)cc3)n2)c(F)c1`, for which the concentration for half-maximal inhibition (IC50) in data set [1] worked out at 0.94 nM. For the same compound, the Ratio IC50 in the data set listed under Mus musculus is greater than 8.
In the case of `Cc1ccc(CN2CCN(C)CC2)cc1NC(=O)c1ccc(Nc2nccc(-c3cccnc3)n2)c(F)c1`, the IC50 in data set [1] came out at 7.2 nM.
In data set [1], `Cc1ccc(CN(C)C)cc1NC(=O)c1ccc(Nc2ncc(C)c(-c3ccc(OC(F)(F)F)cc3)n2)c(F)c1` registered an IC50 of 0.78 nM. Besides, the Ratio IC50 in the data set listed under Mus musculus was greater than 8.
`Cc1ccc(OCCCN2CCOCC2)cc1NC(=O)c1ccc(Nc2ncc(C)c(-c3ccc(OC(F)(F)F)cc3)n2)c(F)c1`: half-maximal inhibition in data set [1] (IC50) was put at 1.02 nM.
Regarding `CCN(CC)Cc1ccc(C)c(NC(=O)c2ccc(Nc3ncc(C)c(-c4ccc(OC(F)(F)F)cc4)n3)c(F)c2)c1`, it took 0.9 nM to reach half-maximal inhibition in [1] (IC50). Also, in the data set listed under Mus musculus, the Ratio IC50 was greater than 8.

As a reminder, the IC50 is the midpoint of a concentration-inhibition curve. High values mean weaker potency in that assay, low ones greater potency in that assay. The term half-life denotes the time needed for the level to fall by half in the phase considered. For orientation: Cmax means the peak of the concentration-time curve. As usually defined, the AUC(0-t) is exposure summed from dosing to a finite time, without extrapolation to infinity. Usually clearance stands for the rate of elimination divided by the concentration. Usually CL/F stands for clearance divided by bioavailability, as obtained after extravascular dosing. As a reminder, the MRT last is a mean duration of stay, worked out from the concentration-time curve.

The values are drawn from ChEMBL document CHEMBL4052695, “Introduction of fluorine to phenyl group of 4-(2-pyrimidinylamino)benzamides leading to a series of potent hedgehog signaling pathway inhibitors” (Bioorg Med Chem Lett, 2017).
